Source: patent EP2718307B1, “BETA-HAIRPIN PEPTIDOMIMETICS AS CXC4 ANTAGONISTS” (Polyphor AG, priority 2011, dated 2012)
Bridge positions count the residues as written; N and C are the ends. Square brackets hold non-standard residues; d marks the D form. Peptide text beside a SMILES is read from it. Lys(iPr) = CC(C)NCCCC[C@H](N)C(=O)O; Orn(iPr) = CC(C)NCCC[C@H](N)C(=O)O

Tested on: HSC mobilization
Assay: HSC mobilization in mouse (time-response and dose-response study, CFU-C assay)
Type: in vivo, Male C57BI/6 mice
Conditions: for time of maximum mobilization: from time-response study; for ED50: sigmoidal fit of doses 1.5, 5 and 15 mg/kg i.p., maximum constrained to 4000 CFU/mL, ED50 corresponds to 2000 CFU/mL
Method: For the compounds of Ex. 1 and Ex. 2 a HSC mobilization study was performed consisting of a time-response study to assess the time of maximum mobilization after dosing and a subsequent dose-response study.
Male C57BI/6 mice (Janvier, France; n = 5 for Ex. 1, n = 3 for Ex. 2) received bolus i.p. injections of Ex. 1 and Ex. 2, respectively, (5 mg/kg) dissolved in 10 µL of water per g mouse weight containing 0.9% NaCl. Blood was withdrawn from the cheek pouch into EDTA coated tubes for the time points 0, 0.5, 1, 2, 4, 6 and 8 hrs after administration. The colony forming unit in culture counts (CFU-C counts) were determined by performing a CFU-C assay as described below.
Male C57BI/6 mice (Janvier, France; n = 5 per dose group for Ex. 1, n = 3 per dose group for Ex. 2) received bolus i.p. injections of Ex. 1 and Ex. 2, respectively, at doses of 0.5, 1.5, 5 and 15 mg/kg (compound dissolved in 10 µL of water per g mouse weight containing 0.9% NaCl). Blood was collected as described above at the time of maximum mobilization for Ex. 1 (4 h) and Ex. 2 (2 h), respectively.
CFU-C counts were determined by culturing aliquots of lysed peripheral blood in standard semi-solid progenitor cell culture medium. In brief, a defined amount of blood was washed with PBS buffer (Gibco®) containing 0.5% bovine serum albumin, followed by red blood cell lysis in hypotonic NH4Cl buffer (Sigma) and a second wash step. The cell pellet was resuspended in DMEM (Gibco®) containing 10% FCS, suspended in 2 mL of commercially available, cytokine-replete methylcellulose medium for murine cells (Cell Systems, USA), and plated in duplicate into 35 mm cell culture dishes. CFU-C were scored after 7-8 days incubation under standard conditions (20% O2, saturated humidity, 5% CO2, 37 °C). Peripheral blood cellularity was analyzed using an automated blood count machine (Drew Scientific).
Considering the curve progressions of both compounds the dose-responses are constrained to a maximum response of 4000 CFU/mL. The ED50-values indicated in Table 9 are therefore corresponding to a response of 2000 CFU/mL.

[1] = time-response study, 5 mg/kg bolus i.p., 0.5 h after administration
[2] = time-response study, 5 mg/kg bolus i.p., 1 h after administration
[3] = time-response study, 5 mg/kg bolus i.p., 2 h after administration
[4] = time-response study, 5 mg/kg bolus i.p., 4 h after administration
[5] = time-response study, 5 mg/kg bolus i.p., 6 h after administration
[6] = time-response study, 5 mg/kg bolus i.p., 8 h after administration

SMILES	CFU/mL ± SD (dose-response study, 1.5 mg/kg bolus i.p., blood collected at 2 h) [CFU/mL]	CFU/mL ± SD (dose-response study, 5 mg/kg bolus i.p., blood collected at 2 h) [CFU/mL]	CFU/mL ± SD (dose-response study, 15 mg/kg bolus i.p., blood collected at 2 h) [CFU/mL]	time of maximum mobilization (5 mg/kg bolus i.p.) [h]	ED50 [mg/kg]	CFU/mL ± SD [1] [CFU/mL]	CFU/mL ± SD [2] [CFU/mL]	CFU/mL ± SD [3] [CFU/mL]	CFU/mL ± SD [4] [CFU/mL]	CFU/mL ± SD [5] [CFU/mL]	CFU/mL ± SD [6] [CFU/mL]	CFU/mL ± SD (dose-response study, 0.5 mg/kg bolus i.p., blood collected at 4 h) [CFU/mL]	CFU/mL ± SD (dose-response study, 1.5 mg/kg bolus i.p., blood collected at 4 h) [CFU/mL]	CFU/mL ± SD (dose-response study, 5 mg/kg bolus i.p., blood collected at 4 h) [CFU/mL]	CFU/mL ± SD (dose-response study, 15 mg/kg bolus i.p., blood collected at 4 h) [CFU/mL]
COc1ccc(C[C@@H]2NC(=O)[C@H](Cc3c[nH]cn3)NC(=O)[C@H](Cc3ccc(O)cc3)NC(=O)[C@@H]3CCCN3C(=O)[C@H]3CCCN3C(=O)[C@H](CCCCNC(C)C)NC(=O)[C@H](CCC(N)=O)NC(=O)[C@H](Cc3ccc(O)cc3)NC(=O)[C@@H]3CSSC[C@H](NC2=O)C(=O)N[C@@H](CO)C(=O)N[C@@H](C)C(=O)N2CCC[C@@H]2C(=O)N[C@@H](CCCNC(C)C)C(=O)N[C@@H](CCCNC(=N)N)C(=O)N[C@@H](Cc2ccc(O)cc2)C(=O)N3)cc1 [Ex. 2, cyclo(-Tyr^1-His^2-Tyr(Me)^3-Cys^4-Ser^5-Ala^6-^DPro^7-Orn(iPr)^8-Arg^9-Tyr^10-Cys^11-Tyr^12-Gln^13-Lys(iPr)^14-^DPro^15-Pro^16-), disulfide bond between Cys^4 and Cys^11] (cyclo(YHY(Me)CSA[dP][Orn(iPr)]RYCYQ[Lys(iPr)][dP]P); disulfide 4-11)	1314 ± 463	2894 ± 329	3589 ± 576	2	2.38	839 ± 148	1020 ± 262	2894 ± 329	1929 ± 643	1164 ± 151	373 ± 96				
CC(C)NCCCC[C@@H]1NC(=O)[C@H](CCC(N)=O)NC(=O)[C@H](Cc2ccc(O)cc2)NC(=O)[C@@H]2CSSC[C@H](NC(=O)[C@H](Cc3ccc(O)cc3)NC(=O)[C@H](Cc3c[nH]cn3)NC(=O)[C@H](Cc3ccc(O)cc3)NC(=O)[C@@H]3CCCN3C(=O)[C@H]3CCCN3C1=O)C(=O)N[C@@H](CO)C(=O)N[C@@H](C)C(=O)N1CCC[C@@H]1C(=O)N[C@@H](CCCNC(C)C)C(=O)N[C@@H](CCCNC(=N)N)C(=O)N[C@@H](Cc1ccc(O)cc1)C(=O)N2 [Ex. 1, cyclo(-Tyr^1-His^2-Tyr^3-Cys^4-Ser^5-Ala^6-^DPro^7-Orn(iPr)^8-Arg^9-Tyr^10-Cys^11-Tyr^12-Gln^13-Lys(iPr)^14-^DPro^15-Pro^16-), disulfide bond between Cys^4 and Cys^11] (cyclo(YHYCSA[dP][Orn(iPr)]RYCYQ[Lys(iPr)][dP]P); disulfide 4-11)				4	1.76	511 ± 85	2208 ± 262	2592 ± 450	3109 ± 537	1857 ± 281	588 ± 161	974 ± 57	1672 ± 233	3325 ± 310	3289 ± 431
